Assay results published in paper PMC6934184, “Selective DNA-PKcs inhibition extends the therapeutic index of localized radiotherapy and chemotherapy” (The Journal of Clinical Investigation, 2019).

Molecular target: T1, KIT Y823D (Homo sapiens, UniProt P10721, Y823D)
T1 construct: purchased Thermo Fisher Scientific (Life Technologies) SelectScreen
Test: SelectScreen LanthaScreen
Format: binding
Conditions: read-out: % displacement
Method in brief: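 NU5455 was profiled across the SelectScreen Broad panel of kinase activity and binding assays. Z'LYTE reactions such as CSF1R ran at apparent Km ATP, while the Adapta CAMK1 assay used ATP listed as 10. Values are given as percent.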

T1 sequence (P10721 26-976 Y823D): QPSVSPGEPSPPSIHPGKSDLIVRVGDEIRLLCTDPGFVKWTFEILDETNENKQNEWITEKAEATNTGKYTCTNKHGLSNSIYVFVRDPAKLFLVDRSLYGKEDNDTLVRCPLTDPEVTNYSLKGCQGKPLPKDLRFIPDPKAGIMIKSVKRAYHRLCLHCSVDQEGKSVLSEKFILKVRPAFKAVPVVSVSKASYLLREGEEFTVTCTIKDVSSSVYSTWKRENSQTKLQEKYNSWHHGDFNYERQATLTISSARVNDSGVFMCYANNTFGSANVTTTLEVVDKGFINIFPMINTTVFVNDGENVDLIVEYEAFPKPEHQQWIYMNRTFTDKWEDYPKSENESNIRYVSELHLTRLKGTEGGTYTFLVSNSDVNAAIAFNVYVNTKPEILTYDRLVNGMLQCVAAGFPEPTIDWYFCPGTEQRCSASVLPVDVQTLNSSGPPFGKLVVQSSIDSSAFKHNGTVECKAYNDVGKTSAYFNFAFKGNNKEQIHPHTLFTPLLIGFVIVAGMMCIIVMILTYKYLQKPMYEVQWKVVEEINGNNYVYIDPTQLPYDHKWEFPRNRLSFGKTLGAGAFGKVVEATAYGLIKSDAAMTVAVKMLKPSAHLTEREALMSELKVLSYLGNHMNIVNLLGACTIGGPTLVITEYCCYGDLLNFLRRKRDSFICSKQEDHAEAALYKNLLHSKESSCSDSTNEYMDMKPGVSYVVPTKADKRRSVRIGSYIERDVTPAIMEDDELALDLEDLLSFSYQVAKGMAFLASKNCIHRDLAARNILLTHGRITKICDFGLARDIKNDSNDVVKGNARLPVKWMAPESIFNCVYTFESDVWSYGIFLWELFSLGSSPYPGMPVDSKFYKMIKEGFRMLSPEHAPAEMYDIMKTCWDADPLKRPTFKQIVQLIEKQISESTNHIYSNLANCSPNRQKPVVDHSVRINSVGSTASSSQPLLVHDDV

CN(C(=O)CN1CCOCC1)c1ccc2sc3c(-c4cccc5c(=O)cc(N6CC7CCC(C6)O7)oc45)cccc3c2c1 [NU5455] showed an inhibition at 1 µM of 5.6%.
